Source: ChEMBL document CHEMBL4339181, “Kinase and Histone Deacetylase Hybrid Inhibitors for Cancer Therapy” (J Med Chem, 2019)

Tests used:
[1] = Toxicity in patient with advanced solid tumor assessed as dry skin administered as 1 hr iv infusion for 5 consecutive days every 2 weeks relative to control; format: organism-based; settings: human, in vivo
[2] = Toxicity in patient with advanced solid tumor assessed as serum creatinine elevation administered as 1 hr iv infusion for 5 consecutive days every 2 weeks relative to control; format: organism-based; settings: human, in vivo
[3] = Toxicity in patient with advanced solid tumor assessed as serum AST elevation administered as 1 hr iv infusion for 5 consecutive days every 2 weeks relative to control; format: organism-based; settings: human, in vivo
[4] = Toxicity in patient with advanced solid tumor administered as 1 hr iv infusion for 5 consecutive days every 2 weeks; format: organism-based; settings: human, in vivo
[5] = test system: HepG2; assay: Antitumor activity against human HepG2 cells xenografted in nu/nu CD-1 mouse assessed as tumor regression at 120 mg/kg, iv administered daily relative to control; format: functional
[6] = Toxicity in patient with advanced solid tumor assessed as transient reversible nausea administered as 1 hr iv infusion for 5 consecutive days every 2 weeks relative to control; format: organism-based; settings: human, in vivo
[7] = Toxicity in patient with advanced solid tumor assessed as fatigue administered as 1 hr iv infusion for 5 consecutive days every 2 weeks relative to control; format: organism-based; settings: human, in vivo
[8] = molecular target: Histone deacetylase 5 (Homo sapiens, UniProt Q9UQL6); assay: Inhibition of HDAC5 (unknown origin)
Chain of Histone deacetylase 5 (Q9UQL6 whole entry): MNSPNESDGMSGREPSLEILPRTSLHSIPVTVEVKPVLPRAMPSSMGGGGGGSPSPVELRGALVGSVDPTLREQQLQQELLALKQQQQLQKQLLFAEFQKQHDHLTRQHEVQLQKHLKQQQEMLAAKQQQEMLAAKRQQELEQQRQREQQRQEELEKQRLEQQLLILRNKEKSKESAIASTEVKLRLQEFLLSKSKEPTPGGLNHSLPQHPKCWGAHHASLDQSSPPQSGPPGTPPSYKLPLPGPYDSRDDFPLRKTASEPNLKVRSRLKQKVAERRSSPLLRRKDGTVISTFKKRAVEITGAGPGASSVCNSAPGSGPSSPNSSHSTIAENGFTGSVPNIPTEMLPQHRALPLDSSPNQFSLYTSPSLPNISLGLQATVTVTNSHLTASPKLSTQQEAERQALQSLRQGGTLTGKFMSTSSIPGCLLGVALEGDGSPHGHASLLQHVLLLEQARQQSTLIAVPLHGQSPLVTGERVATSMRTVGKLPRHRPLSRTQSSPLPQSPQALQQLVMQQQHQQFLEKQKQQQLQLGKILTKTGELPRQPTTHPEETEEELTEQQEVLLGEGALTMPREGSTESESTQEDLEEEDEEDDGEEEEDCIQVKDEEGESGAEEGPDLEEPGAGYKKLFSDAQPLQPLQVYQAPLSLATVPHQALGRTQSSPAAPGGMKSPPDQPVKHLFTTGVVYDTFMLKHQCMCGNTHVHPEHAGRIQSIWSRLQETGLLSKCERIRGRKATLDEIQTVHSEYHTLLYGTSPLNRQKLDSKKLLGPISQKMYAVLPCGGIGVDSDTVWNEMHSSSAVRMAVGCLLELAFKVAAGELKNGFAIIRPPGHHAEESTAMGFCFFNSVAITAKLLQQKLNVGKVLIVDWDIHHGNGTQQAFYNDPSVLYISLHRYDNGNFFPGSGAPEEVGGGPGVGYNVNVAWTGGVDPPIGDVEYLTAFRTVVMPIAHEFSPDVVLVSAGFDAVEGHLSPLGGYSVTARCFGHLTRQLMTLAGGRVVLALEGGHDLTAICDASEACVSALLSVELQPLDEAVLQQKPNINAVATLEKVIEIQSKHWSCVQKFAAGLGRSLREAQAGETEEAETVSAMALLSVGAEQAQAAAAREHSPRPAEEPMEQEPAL

[9] = molecular target: T1, Protein deacetylase HDAC6 (Homo sapiens, UniProt Q9UBN7)
T1 sequence (Q9UBN7 whole entry): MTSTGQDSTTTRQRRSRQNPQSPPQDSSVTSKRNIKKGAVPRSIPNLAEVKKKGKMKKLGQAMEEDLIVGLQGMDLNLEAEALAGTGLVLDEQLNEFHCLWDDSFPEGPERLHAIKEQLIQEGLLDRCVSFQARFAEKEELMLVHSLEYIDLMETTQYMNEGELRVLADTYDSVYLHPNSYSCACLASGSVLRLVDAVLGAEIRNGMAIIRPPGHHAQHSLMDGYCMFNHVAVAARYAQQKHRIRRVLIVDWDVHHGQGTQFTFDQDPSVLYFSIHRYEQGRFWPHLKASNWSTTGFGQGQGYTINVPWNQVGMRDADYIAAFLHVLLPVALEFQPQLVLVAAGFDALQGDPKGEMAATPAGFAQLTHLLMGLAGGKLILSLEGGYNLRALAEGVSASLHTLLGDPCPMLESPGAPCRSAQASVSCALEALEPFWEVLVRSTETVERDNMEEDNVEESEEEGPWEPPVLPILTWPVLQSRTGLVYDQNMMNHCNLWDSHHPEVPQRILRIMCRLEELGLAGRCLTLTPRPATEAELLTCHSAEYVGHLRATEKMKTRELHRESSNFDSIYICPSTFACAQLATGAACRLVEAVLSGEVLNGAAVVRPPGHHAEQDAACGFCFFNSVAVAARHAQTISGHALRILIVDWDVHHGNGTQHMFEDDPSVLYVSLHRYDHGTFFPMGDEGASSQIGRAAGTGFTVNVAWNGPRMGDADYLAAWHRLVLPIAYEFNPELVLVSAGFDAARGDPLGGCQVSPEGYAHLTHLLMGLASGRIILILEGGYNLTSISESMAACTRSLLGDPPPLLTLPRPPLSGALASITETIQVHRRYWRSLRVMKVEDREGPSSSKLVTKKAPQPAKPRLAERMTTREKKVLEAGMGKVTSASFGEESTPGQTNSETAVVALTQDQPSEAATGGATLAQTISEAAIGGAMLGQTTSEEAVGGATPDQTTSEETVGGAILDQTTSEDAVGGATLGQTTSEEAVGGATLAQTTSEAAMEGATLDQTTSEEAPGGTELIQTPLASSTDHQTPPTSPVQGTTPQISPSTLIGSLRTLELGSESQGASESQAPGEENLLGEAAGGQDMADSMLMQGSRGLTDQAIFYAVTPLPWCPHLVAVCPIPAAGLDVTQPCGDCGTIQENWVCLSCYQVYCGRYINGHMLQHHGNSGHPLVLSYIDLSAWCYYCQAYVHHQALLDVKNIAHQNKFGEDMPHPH
Description: Inhibition of HDAC6 (unknown origin)

[10] = molecular target: T2, Histone deacetylase 8 (Homo sapiens, UniProt Q9BY41)
T2 sequence (Q9BY41 whole entry): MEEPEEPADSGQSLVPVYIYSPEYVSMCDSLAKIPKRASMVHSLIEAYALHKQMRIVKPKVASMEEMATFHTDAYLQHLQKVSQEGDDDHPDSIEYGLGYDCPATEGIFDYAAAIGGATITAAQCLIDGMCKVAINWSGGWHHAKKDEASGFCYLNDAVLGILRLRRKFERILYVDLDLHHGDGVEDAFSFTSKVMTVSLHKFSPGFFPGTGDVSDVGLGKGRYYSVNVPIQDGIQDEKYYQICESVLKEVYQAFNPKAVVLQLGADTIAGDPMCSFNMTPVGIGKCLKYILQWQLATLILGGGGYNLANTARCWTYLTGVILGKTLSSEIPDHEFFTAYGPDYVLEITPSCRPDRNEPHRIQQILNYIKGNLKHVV
Description: Inhibition of HDAC8 (unknown origin)

[11] = molecular target: Histone deacetylase 9 (Homo sapiens, UniProt Q9UKV0); assay: Inhibition of HDAC9 (unknown origin)
Chain of Histone deacetylase 9 (Q9UKV0 whole entry): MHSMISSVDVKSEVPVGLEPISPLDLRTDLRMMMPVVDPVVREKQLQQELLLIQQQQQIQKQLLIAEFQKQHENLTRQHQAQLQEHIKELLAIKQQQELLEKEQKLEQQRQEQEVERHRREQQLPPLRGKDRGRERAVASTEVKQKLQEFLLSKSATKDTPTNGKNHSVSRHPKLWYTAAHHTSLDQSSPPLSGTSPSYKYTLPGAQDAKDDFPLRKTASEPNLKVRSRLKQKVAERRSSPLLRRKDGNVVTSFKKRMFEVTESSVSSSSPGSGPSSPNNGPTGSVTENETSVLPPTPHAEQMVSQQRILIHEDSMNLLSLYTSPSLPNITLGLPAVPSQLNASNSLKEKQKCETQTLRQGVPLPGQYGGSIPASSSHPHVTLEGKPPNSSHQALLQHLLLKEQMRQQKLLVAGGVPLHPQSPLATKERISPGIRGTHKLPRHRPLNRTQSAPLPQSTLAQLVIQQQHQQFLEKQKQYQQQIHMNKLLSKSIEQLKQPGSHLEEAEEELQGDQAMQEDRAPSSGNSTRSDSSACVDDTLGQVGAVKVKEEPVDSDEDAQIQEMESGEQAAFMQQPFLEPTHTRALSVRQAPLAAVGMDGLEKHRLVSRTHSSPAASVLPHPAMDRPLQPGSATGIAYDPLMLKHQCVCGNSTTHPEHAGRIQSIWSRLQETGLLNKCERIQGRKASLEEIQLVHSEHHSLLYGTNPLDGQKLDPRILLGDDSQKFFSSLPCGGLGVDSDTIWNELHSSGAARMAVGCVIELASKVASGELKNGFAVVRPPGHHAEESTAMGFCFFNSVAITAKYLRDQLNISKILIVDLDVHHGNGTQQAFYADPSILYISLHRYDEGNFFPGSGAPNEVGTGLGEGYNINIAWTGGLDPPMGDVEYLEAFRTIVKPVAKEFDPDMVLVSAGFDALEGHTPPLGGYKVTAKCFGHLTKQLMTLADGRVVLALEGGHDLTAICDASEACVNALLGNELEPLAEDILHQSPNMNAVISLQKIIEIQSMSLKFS

IC50 [8] | IC50 [9] | IC50 [10] | IC50 [11] | SMILES | Activity [1] [%] | Activity [2] [%] | Activity [3] [%] | MTD [4] [mg/m2] | Activity [5] [%] | Activity [6] [%] | Activity [7] [%]
 |  |  |  | C#Cc1cccc(Nc2ncnc3cc(OC)c(OCCCCCCC(=O)NO)cc23)c1 [CUDC-101] | 16 | 12 | 12 | 275 | 30 | 24 | 24
Not Active | Not Active | Not Active | Not Active | O=C(CCCCCCC(=O)Nc1ccccc1)NO [VORINOSTAT] |  |  |  |  |  |  | 
